The record followed here is ChEMBL document CHEMBL1130456, “Nonpeptide glycoprotein IIb/IIIa inhibitors. 13. design and synthesis of an orally active pyrazolopiperazinone nonpeptide fibrinogen receptor antagonist” (Bioorg Med Chem Lett, 1997).

Where “and” joins values, the source holds several entries; their conditions need not be identical. Identical values can stand only once. Bounds are passed on as bounds.

The species entered for one experiment is Homo sapiens. Kind of experiment: Concentration required for 50% inhibition of platelet aggregation of human gel-filtered platelets(GFP) in platelet aggregation assay. Type of experiment: functional.
`O=C(N[C@@H](CNC(=O)c1cc2n(n1)CCN(CCC1CCNCC1)C2=O)C(=O)O)OCc1ccccc1` registered an IC50 of 5 nM.

Take `CS(=O)(=O)N[C@@H](CNC(=O)c1cc2n(n1)CCN(CCC1CCNCC1)C2=O)C(=O)O`: half-maximal inhibition (IC50) was put at 15 nM.

In the case of `CC(=O)N[C@@H](CNC(=O)c1cc2n(n1)CCN(CCC1CCNCC1)C2=O)C(=O)O`, the IC50 worked out at 25 nM.

`C=CCCS(=O)(=O)N[C@@H](CNC(=O)c1cc2n(n1)CCN(CCC1CCNCC1)C2=O)C(=O)O`: the 50% inhibitory concentration (IC50) is 11 nM.

With `C[C@H](CC(=O)O)NC(=O)c1cc2n(n1)CCN(CCC1CCNCC1)C2=O`, the concentration for half-maximal inhibition (IC50) was 260 nM.

In turn, `O=C(NCc1ccccc1)N[C@@H](CNC(=O)c1cc2n(n1)CCN(CCC1CCNCC1)C2=O)C(=O)O` gave a half-maximal inhibitory concentration (IC50) of 22 nM.

In the case of `N[C@@H](CNC(=O)c1cc2n(n1)CCN(CCC1CCNCC1)C2=O)C(=O)O`, it took 45 nM to reach half-maximal inhibition (IC50).

In the case of `C#C[C@H](CC(=O)O)NC(=O)c1cc2n(n1)CCN(CCC1CCNCC1)C2=O`, the IC50 worked out at 120 nM.

The next experiment relates to Rhesus monkey. Kind of experiment: Inhibition of platelet aggregation at 24 hr in response to collagen in conscious rhesus monkey. Format: functional, Cercopithecidae.
In the case of `CCCCS(=O)(=O)N[C@@H](CNC(=O)c1cc2n(n1)CCN(CCC1CCNCC1)C2=O)C(=O)O`, the Inhibition was 86% and 31%.

The next experiment relates to Rhesus monkey. Kind of experiment: Inhibition of platelet aggregation at 6 hr in response to ADP and collagen in conscious rhesus monkey. Format: functional, Cercopithecidae.
`CCCCS(=O)(=O)N[C@@H](CNC(=O)c1cc2n(n1)CCN(CCC1CCNCC1)C2=O)C(=O)O` came in with an Inhibition greater than 90%.
